This passage reports IC50 results from patent US20080275058A1, “N-Substituted-1H-Quinoline-2,4-Diones, Preparation Method Thereof, And Pharmaceutical Composition Containing The Same” (KOREA RESEARCH INSTITUTE OF CHEMICAL TECHNOLOGY, priority 2005, published 2008).

Each structure is given as a SMILES string. Read-outs that look alike come from different tables or passages of the source. A value given as a limit tells only on which side of the number the result lay.

The target of assay [1] is T1, Human serotonin 5-HT6 receptor (Homo sapiens, UniProt P50406).
T1 construct: made in house; host or cells: insect Sf21 cells (baculovirus vector BacPAK8)
Briefly: [3H]LSD binding assay on cloned 5-HT6 receptor membranes.

The target in the next assay is T2, 5-HT7 (Homo sapiens, UniProt P34969).
T2 construct: purchased Euroscreen/BioSignal Packard Inc
Briefly: Radioligand binding, 5-HT7 ([3H]LSD). The conditions noted are these: Table 4; [3H]LSD 3 nM; read-out: Binding affinity, IC50 (nM) 5-HT7.

The next assay deals with T3, hD3 (Homo sapiens, UniProt P35462).
T3 construct: purchased BioSignal Packard Inc., Montreal, Canada
Briefly: Radioligand binding, dopamine D3 ([3H]spiperone). The conditions noted are these: Table 4; [3H]spiperone 1 nM; read-out: Binding affinity, IC50 (nM) D3. How it is done: (§1) 2-2: Binding assays of Dopamine Receptor Family
(§2) The radioligands used were [^3H] spiperone (for hD2L and hD3 receptors, 1 nM) and [^3H] YM-09151-2 (for hD4.2 receptor, 0.06 nM). Radioligand bindings were performed by the protocols provided by the supplier of receptor membranes (BioSignal Packard Inc., Montreal, Canada). Briefly, the buffer used in D2 or D3 receptor binding assay was 50 mM Tris-HCl (pH 7.4), 10 mM MgCl2, 1 mM EDTA, or 50 mM Tris-HCl (pH 7.4), 5 mM MgCl2, 5 mM EDTA, 5 mM KCl, 1.5 mM CaCl2, 120 mM NaCl, respectively. In [^3H] YM-09151-2 receptor binding assays, the buffer containing 50 mM Tris-HCl (pH 7.4), 5 mM MgCl2, 5 mM EDTA, 5 mM KCl and 1.5 mM CaCl2 was used. […] Competition binding studies were carried out with 7-8 concentrations of the test compound run in duplicate tubes, and isotherms from three assays were calculated by computerized nonlinear regression analysis (GraphPad Prism Program, San Diego, […]) to yield median inhibitory concentration (IC50) values.

The target in a further assay is T4, hD4.2 receptor (Homo sapiens, UniProt P21917, DEL265-296).
T4 construct: purchased BioSignal Packard Inc., Montreal, Canada
T4 sequence (P21917 with tags, fused parts or gaps DEL265-296): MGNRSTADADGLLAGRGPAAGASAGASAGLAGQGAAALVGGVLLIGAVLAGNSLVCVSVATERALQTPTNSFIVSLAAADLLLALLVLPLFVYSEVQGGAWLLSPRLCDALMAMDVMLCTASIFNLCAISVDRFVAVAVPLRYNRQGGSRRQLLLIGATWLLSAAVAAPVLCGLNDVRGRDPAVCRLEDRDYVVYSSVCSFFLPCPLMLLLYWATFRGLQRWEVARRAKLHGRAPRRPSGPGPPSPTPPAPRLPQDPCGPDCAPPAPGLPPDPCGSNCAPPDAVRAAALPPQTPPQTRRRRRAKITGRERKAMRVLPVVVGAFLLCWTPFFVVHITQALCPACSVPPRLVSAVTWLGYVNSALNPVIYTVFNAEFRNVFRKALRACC
Briefly: Radioligand binding, dopamine D4 ([3H]YM-09151-2). The conditions noted are these: Table 4; [3H]YM-09151-2 0.06 nM; read-out: Binding affinity, IC50 (nM) D4. The procedure: as §1, §2

The next assay addresses T5, 5-HT1a (Homo sapiens, UniProt P08908).
T5 construct: purchased Euroscreen/BioSignal Packard Inc
T5 sequence (P08908 1-422): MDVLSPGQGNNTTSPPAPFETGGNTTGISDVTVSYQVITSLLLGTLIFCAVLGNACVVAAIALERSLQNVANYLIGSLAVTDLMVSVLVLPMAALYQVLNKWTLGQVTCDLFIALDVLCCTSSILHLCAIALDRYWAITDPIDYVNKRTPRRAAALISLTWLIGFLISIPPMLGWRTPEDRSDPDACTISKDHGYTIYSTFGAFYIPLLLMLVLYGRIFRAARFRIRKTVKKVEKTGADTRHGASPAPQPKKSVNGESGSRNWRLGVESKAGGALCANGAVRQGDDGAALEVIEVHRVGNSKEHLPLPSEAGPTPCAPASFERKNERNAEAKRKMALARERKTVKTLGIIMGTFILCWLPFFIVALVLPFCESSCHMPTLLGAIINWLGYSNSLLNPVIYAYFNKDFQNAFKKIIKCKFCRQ
The assay is described as follows: Radioligand binding, 5-HT1a ([3H]8-OH-DPAT). Particulars: Table 4; [3H]8-OH-DPAT 0.5 nM; read-out: Binding affinity, IC50 (nM) 5-HT1a. The procedure:
Radioligand bindings were performed according to the test method provided by the supplier of receptor membrane (Euroscreen/BioSignal Packard Inc.). The detailed assay conditions and the results were shown in the following Table 3 and Table 4, respectively.

Another assay deals with T6, 5-HT2c (Homo sapiens, UniProt P28335).
T6 construct: purchased Euroscreen/BioSignal Packard Inc
T6 sequence (P28335 33-458): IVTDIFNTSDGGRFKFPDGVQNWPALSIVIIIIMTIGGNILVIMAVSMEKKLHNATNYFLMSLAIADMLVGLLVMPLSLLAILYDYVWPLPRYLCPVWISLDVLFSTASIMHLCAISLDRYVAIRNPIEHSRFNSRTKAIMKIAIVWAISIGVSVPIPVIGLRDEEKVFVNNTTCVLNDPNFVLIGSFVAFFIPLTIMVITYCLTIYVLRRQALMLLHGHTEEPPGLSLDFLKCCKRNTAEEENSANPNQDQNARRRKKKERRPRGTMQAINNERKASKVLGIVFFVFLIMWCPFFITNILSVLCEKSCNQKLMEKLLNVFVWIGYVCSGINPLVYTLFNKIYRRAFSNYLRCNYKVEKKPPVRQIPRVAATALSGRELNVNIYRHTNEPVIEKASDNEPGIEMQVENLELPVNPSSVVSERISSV
Briefly: Radioligand binding, 5-HT2c ([3H]Mesulergine). Particulars: Table 4; [3H]Mesulergine 1 nM; read-out: Binding affinity, IC50 (nM) 5-HT2c.

The target in the next assay is T7, 5-HT2a (Homo sapiens, UniProt P28223).
T7 construct: purchased Euroscreen/BioSignal Packard Inc
The assay is described as follows: Radioligand binding, 5-HT2a ([3H]Ketanserin). The conditions noted are these: Table 4; [3H]Ketanserin 1 nM; read-out: Binding affinity, IC50 (nM) 5-HT2a.

The next assay concerns the target D1 (Homo sapiens, UniProt P21728). Briefly: Radioligand binding, dopamine D1. The conditions noted are these: Table 4; read-out: Binding affinity, IC50 (nM) D1.
The next assay concerns the target T8, hD2L (Homo sapiens, UniProt P14416).
T8 construct: purchased BioSignal Packard Inc., Montreal, Canada
Briefly: Radioligand binding, dopamine D2 ([3H]spiperone). The conditions noted are these: Table 4; [3H]spiperone 1 nM; read-out: Binding affinity, IC50 (nM) D2. How it is done: as §1, §2

[2] abbreviates: Table 2, 1.87 nM [3H]LSD, 37 C, 60 min, read-out: IC50 (nM), binding affinity to the 5-HT6 receptor.
Where [3] appears, read: Table 4, read-out: Binding affinity, IC50 (nM) 5-HT6.

T2 sequence (P34969 whole entry): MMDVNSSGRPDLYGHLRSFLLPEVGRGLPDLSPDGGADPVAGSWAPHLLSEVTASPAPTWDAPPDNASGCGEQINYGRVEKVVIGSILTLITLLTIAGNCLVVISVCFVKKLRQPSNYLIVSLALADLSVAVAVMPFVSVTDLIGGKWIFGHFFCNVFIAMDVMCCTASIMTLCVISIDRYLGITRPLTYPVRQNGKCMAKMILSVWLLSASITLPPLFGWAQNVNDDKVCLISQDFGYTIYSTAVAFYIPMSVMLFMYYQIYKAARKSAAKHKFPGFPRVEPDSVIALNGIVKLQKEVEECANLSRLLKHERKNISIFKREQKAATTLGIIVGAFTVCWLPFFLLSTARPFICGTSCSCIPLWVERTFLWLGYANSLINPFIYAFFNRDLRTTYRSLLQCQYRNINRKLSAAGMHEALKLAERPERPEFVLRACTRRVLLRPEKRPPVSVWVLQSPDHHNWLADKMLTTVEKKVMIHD
T7 sequence (P28223 whole entry): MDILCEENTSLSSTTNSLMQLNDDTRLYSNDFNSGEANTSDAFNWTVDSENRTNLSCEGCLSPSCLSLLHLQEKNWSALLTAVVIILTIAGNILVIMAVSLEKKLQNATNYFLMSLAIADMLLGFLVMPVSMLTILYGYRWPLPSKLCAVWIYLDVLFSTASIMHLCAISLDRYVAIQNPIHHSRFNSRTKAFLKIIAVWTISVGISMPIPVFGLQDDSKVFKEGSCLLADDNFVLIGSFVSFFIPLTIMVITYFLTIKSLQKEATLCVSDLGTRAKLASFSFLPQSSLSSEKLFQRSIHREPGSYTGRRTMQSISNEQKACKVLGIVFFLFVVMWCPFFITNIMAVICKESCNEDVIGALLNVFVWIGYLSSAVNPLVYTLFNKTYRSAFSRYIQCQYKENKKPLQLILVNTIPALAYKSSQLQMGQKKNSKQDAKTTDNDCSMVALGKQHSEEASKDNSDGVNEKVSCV
Sequence of D1 (P21728 whole entry): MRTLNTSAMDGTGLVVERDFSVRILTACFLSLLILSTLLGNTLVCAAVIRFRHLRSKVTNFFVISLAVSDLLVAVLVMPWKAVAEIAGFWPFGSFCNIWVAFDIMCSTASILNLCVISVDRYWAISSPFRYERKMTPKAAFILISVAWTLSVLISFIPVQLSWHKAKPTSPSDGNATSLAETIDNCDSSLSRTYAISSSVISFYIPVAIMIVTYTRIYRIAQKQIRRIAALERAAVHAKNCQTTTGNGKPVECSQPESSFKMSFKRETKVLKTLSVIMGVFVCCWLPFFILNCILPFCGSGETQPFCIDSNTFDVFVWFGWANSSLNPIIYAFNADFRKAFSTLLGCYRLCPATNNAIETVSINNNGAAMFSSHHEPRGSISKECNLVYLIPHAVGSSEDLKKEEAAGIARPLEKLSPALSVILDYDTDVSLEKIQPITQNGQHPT
T1 sequence (P50406 whole entry): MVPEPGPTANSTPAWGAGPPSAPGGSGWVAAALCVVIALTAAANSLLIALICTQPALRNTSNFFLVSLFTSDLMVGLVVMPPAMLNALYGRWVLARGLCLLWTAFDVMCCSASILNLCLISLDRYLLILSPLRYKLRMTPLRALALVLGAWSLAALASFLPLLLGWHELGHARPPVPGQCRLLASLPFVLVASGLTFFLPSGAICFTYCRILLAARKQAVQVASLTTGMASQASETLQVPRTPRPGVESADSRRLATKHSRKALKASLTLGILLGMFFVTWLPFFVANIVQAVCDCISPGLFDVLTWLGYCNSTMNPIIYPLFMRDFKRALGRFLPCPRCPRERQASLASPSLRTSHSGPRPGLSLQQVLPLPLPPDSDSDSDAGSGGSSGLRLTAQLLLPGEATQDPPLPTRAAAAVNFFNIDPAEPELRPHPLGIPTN
T8 sequence (P14416 whole entry): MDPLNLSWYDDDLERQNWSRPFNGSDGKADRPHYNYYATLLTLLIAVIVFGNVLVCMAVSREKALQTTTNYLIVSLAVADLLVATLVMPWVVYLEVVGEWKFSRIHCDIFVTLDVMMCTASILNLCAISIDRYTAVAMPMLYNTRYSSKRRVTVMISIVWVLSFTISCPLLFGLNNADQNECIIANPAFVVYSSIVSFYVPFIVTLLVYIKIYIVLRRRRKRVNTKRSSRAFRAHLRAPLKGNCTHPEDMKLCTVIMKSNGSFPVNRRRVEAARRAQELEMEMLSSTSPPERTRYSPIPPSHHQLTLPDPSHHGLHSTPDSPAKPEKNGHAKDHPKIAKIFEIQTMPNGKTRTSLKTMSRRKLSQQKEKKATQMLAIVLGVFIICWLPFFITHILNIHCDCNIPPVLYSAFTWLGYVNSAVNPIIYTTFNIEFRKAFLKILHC
T3 sequence (P35462 whole entry): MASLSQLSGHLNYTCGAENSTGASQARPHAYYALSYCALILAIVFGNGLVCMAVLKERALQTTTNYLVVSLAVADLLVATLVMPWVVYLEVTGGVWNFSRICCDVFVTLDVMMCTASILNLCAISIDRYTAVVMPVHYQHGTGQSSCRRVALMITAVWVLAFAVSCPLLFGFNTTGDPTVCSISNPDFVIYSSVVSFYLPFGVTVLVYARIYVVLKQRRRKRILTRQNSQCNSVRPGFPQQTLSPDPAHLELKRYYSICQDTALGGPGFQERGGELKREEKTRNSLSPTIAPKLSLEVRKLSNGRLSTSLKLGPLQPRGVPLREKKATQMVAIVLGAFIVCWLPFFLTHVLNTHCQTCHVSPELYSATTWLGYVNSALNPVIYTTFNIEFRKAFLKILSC

For the molecule `CCNc1ccc(C2(C)C(=O)c3c(N4CCNCC4)cc(Cl)cc3N(Cc3ccccc3)C2=O)cc1` (stereo not drawn) [Example 18, 1-Benzyl-7-chloro-3-(4-ethylamino-phenyl)-3-methyl-5-piperazin-1-yl-1H-quinoline-2,4-dione], the IC50 (in general, the concentration needed to halve the response being measured) in assay [1] (setting [2]) came to 14.6 nM; in assay [1] (setting [3]), 15.5 nM; on 5-HT7, 6010 nM; on hD3 it was 8900 nM; at hD4.2 receptor, 8990 nM; at 5-HT1a, 8050 nM. Further, the half-maximal inhibitory concentration (IC50) on 5-HT2c was 8450 nM; at 5-HT2a, 7010 nM; at D1, > 10000 nM; on hD2L, > 1000 nM.

`CN1CCN(c2cc(Cl)cc3c2C(=O)[C@@](C)(c2ccc(N)cc2)C(=O)N3Cc2ccccc2)CC1` (stereo in doubt) [Example 4, 3-(4-Amino-phenyl)-1-benzyl-7-chloro-3-methyl-5-(4-methyl-piperazin-1-yl)-1H-quinoline-2,4-dione]: the IC50 in [1] (setting [2]) amounted to 7.4 nM; in [1] (setting [3]), 15 nM; at 5-HT7, 5050 nM; on hD3, 8110 nM; at hD4.2 receptor, 8190 nM; at 5-HT1a, 5800 nM. Also, the half-inhibitory concentration (IC50) at 5-HT2c was 5780 nM; on 5-HT2a, 7010 nM; at D1, 7090 nM; on hD2L, 6550 nM.

Turning to `CC1(c2ccc(O)cc2)C(=O)c2c(N3CCNCC3)cc(Cl)cc2N(Cc2ccc3ccccc3c2)C1=O` (stereo not drawn) [Example 40, 7-Chloro-3-(4-hydroxy-phenyl)-3-methyl-1-naphthalen-2-ylmethyl-5-piperazin-1-yl-1H-quinoline-2,4-dione], the IC50 in assay [1] (setting [2]) turned out to be 55.7 nM; in [1] (setting [3]), 18.2 nM; at 5-HT7 it was 7810 nM; on hD3, 9310 nM; on hD4.2 receptor it was 8980 nM; at 5-HT1a, 7510 nM. The concentration for half-maximal inhibition (IC50) came to 8510 nM on 5-HT2c, 9480 nM on 5-HT2a, 7510 nM at D1 and 8540 nM on hD2L.

For the molecule `CC1(c2ccc(N)cc2)C(=O)c2c(N3CCNCC3)cc(Cl)cc2N(Cc2ccccc2)C1=O` (stereo not drawn) [Example 16, 3-(4-Amino-phenyl)-1-benzyl-7-chloro-3-methyl-5-piperazin-1-yl-1H-quinolin-2,4-dione], the IC50 in [1] (setting [2]) was found to be 3.2 nM; in [1] (setting [3]), 17.6 nM; at 5-HT7 it was 9350 nM; at hD3 it was 9070 nM; at hD4.2 receptor, 8910 nM; on 5-HT1a, 6020 nM. Also, the half-inhibitory concentration (IC50) worked out at 9880 nM at 5-HT2c, 8080 nM on 5-HT2a, 9010 nM on D1 and 6740 nM at hD2L.

On to `CCN(CC)c1ccc(C2(C)C(=O)c3c(N4CCNCC4)cc(Cl)cc3N(Cc3ccccc3)C2=O)cc1` (stereo not drawn) [Example 17, 1-Benzyl-7-chloro-3-(4-diethylamino-phenyl)-3-methyl-5-piperazin-1-yl-1H-quinoline-2,4-dione], for which the IC50 is 41.5 nM in [1] (setting [2]); 21.5 nM in [1] (setting [3]); > 10000 nM at 5-HT7; 8200 nM on hD3; 9110 nM on hD4.2 receptor; 8550 nM on 5-HT1a. The half-inhibitory concentration (IC50) came to 9810 nM on 5-HT2c, 7550 nM on 5-HT2a, 8410 nM on D1 and 9050 nM at hD2L.

For `CC1(c2ccc(O)cc2)C(=O)c2c(N3CCNCC3)cc(Cl)cc2N(Cc2cccnc2)C1=O` (stereo not drawn) [Example 38, 7-Chloro-3-(4-hydroxy-phenyl)-3-methyl-5-piperazin-1-yl-1-pyridin-3-ylmethyl-1H-quinoline-2,4-dione], the IC50 in assay [1] (setting [2]) is 30.6 nM; in [1] (setting [3]), 20.4 nM; on 5-HT7, 6410 nM; at hD3 it was 9310 nM; at hD4.2 receptor, 9240 nM; on 5-HT1a, 8450 nM. The IC50 at 5-HT2c is 9140 nM; at 5-HT2a it was 8400 nM; on D1, 9410 nM; at hD2L, 7690 nM.

For `CC1(c2ccc(O)cc2)C(=O)c2c(N3CCNCC3)cc(Cl)cc2N(Cc2ccccc2O)C1=O` (stereo not drawn) [Example 30, 7-Chloro-1-(2-hydroxy-benzyl)-3-(4-hydroxy-phenyl)-3-methyl-5-piperazin-1-yl-1H-quinoline-2,4-dione], the IC50 is 15.9 nM in assay [1] (setting [2]); 18.1 nM in assay [1] (setting [3]); 7340 nM at 5-HT7; 9780 nM on hD3; 8760 nM on hD4.2 receptor; 7240 nM at 5-HT1a. In addition, the IC50 at 5-HT2c was 9450 nM; on 5-HT2a, 8400 nM; on D1, 8000 nM; at hD2L, 7650 nM.

On to `CC1(c2ccc(O)cc2)C(=O)c2c(N3CCNCC3)cc(Cl)cc2N(Cc2cccc(Br)c2)C1=O` (stereo not drawn) [Example 34, 1-(3-Bromo-benzyl)-7-chloro-3-(4-hydroxy-phenyl)-3-methyl-5-piperazin-1-yl-1H-quinoline-2,4-dione], for which the IC50 in assay [1] (setting [2]) came to 3.6 nM; in assay [1] (setting [3]) it was 16.8 nM; at 5-HT7, 9070 nM; on hD3, 9000 nM; at hD4.2 receptor, 9350 nM; at 5-HT1a, 7550 nM. The half-maximal inhibitory concentration (IC50) was found to be 7030 nM on 5-HT2c, 6960 nM on 5-HT2a, 9160 nM on D1 and 8050 nM at hD2L.

With `CC1(c2ccc(O)cc2)C(=O)c2c(N3CCNCC3)cc(Cl)cc2N(Cc2cccc(N)c2)C1=O` (stereo not drawn) [Example 26, 1-(3-Amino-benzyl)-7-chloro-3-(4-hydroxy-phenyl)-3-methyl-5-piperazin-1yl-1H-quinoline-2,4-dione], the IC50 stood at 8.7 nM in assay [1] (setting [2]); 19 nM in assay [1] (setting [3]); 5630 nM on 5-HT7; 9120 nM on hD3; 9410 nM on hD4.2 receptor; 5900 nM on 5-HT1a. Also, the half-inhibitory concentration (IC50) turned out to be 7330 nM at 5-HT2c, 5750 nM at 5-HT2a, 6950 nM on D1 and 8410 nM on hD2L.
